Data reported in the kinase profiling compilation of Christmann-Franck et al. (2016).
One block for each compound: values may come before it.

Key:
Experiment in all cases: radiometric filter-binding kinase assay
IKBKB (human) = IKBKB (human) (UniProt O14920)
EPHA4 (human) = EPHA4 (human) (UniProt P54764)
PKN2 (human) = PKN2 (human) (UniProt Q16513)
MINK1 (human) = MINK1 (human) (UniProt Q8N4C8)
TAOK1 (human) = TAOK1 (human) (UniProt Q7L7X3)
CSK (human) = CSK (human) (UniProt P41240)
PAK6 (human) = PAK6 (human) (UniProt Q9NQU5)
EPHA2 (human) = EPHA2 (human) (UniProt P29317)
NUAK1 (human) = NUAK1 (human) (UniProt O60285)
MAP3K11 (human) = MAP3K11 (human) (UniProt Q16584)
[1] = test system: AKT1 (human), P31749 [S473D]
LCK (mouse) = details: accession and sequence are those of the human protein
TTK (human) = TTK (human) (UniProt P33981)
EPHB1 (human) = EPHB1 (human) (UniProt P54762)
TBK1 (human) = TBK1 (human) (UniProt Q9UHD2)
MARK2 (human) = MARK2 (human) (UniProt Q7KZI7)
MAPK10 (human) = MAPK10 (human) (UniProt P53779)
PAK4 (human) = PAK4 (human) (UniProt O96013)
AURKB (human) = AURKB (human) (UniProt Q96GD4)
ROCK2 (rat) = details: accession and sequence are those of the human protein
SRC (human) = SRC (human) (UniProt P12931)
CDK2 CCNA2 (human) = CDK2 CCNA2 (human) (UniProt P20248+P24941)
MYLK (human) = MYLK (human) (UniProt Q15746)
CHEK2 (human) = CHEK2 (human) (UniProt O96017)
EPHB3 (human) = EPHB3 (human) (UniProt P54753)
MAP3K7 TAB1 (human) = MAP3K7 TAB1 (human) (UniProt Q15750+O43318)
DYRK3 (human) = DYRK3 (human) (UniProt O43781)
CHEK1 (human) = CHEK1 (human) (UniProt O14757)
GCK (human) = GCK (human) (UniProt Q12851)
MST4 (human) = MST4 (human) (UniProt Q9P289)
[2] = test system: PAK2 (human), Q13177 [T402E]
MAP2K1 (human) = MAP2K1 (human) (UniProt Q02750)
RPS6KA3 KD1 KD2 (human) = RPS6KA3 KD1 KD2 (human) (UniProt P51812)
EPHB2 (human) = EPHB2 (human) (UniProt P29323)
MAPK8 (human) = MAPK8 (human) (UniProt P45983)
CaMK1 (human) = CaMK1 (human) (UniProt Q14012)

GCK (human), sequence (Q12851 whole entry, looked up): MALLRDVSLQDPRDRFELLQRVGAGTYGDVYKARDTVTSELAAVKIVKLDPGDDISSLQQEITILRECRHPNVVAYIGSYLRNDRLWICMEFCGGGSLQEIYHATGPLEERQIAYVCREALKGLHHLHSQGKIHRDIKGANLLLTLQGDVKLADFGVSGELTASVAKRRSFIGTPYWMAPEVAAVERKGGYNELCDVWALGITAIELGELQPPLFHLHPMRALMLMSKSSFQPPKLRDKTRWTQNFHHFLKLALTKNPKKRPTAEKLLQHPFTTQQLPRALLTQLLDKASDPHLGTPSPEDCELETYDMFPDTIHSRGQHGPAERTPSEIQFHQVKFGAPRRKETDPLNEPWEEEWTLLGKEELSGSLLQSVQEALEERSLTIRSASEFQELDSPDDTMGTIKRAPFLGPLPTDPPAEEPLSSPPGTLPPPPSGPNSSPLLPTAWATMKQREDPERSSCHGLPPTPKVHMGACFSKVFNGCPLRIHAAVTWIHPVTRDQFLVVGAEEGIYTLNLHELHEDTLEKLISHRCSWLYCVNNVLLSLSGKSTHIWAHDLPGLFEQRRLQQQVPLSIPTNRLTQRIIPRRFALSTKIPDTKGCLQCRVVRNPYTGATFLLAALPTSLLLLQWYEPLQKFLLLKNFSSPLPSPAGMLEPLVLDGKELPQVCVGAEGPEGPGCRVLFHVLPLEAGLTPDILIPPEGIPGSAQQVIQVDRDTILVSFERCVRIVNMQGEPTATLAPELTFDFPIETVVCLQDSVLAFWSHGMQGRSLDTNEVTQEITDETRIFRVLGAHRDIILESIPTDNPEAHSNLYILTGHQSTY
EPHB3 (human), sequence (P54753 whole entry, looked up): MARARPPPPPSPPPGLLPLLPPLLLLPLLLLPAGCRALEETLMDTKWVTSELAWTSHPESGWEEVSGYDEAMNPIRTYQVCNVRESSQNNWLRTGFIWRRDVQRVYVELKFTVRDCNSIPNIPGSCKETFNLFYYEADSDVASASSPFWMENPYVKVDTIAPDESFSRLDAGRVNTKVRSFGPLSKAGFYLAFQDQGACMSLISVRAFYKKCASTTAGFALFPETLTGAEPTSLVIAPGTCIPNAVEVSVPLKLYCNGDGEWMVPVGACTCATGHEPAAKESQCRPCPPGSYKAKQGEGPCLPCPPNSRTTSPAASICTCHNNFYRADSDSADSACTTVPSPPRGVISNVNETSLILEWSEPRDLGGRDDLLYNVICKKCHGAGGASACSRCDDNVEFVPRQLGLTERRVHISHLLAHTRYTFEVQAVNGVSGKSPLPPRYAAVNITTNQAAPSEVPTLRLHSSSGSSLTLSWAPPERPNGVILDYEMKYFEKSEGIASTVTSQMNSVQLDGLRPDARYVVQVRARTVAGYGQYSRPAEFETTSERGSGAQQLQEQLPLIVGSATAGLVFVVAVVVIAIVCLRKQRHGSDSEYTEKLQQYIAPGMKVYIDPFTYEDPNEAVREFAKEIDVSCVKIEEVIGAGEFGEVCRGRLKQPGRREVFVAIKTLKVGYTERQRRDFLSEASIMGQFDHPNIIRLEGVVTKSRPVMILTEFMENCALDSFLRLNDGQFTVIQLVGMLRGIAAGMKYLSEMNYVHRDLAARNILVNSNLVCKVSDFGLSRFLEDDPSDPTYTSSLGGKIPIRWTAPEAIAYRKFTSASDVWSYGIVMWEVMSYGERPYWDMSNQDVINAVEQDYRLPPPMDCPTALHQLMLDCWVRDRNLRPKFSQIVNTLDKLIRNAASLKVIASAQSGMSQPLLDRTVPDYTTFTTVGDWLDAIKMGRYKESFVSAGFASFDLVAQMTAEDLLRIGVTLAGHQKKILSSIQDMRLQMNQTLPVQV
PAK4 (human), sequence (O96013 whole entry, looked up): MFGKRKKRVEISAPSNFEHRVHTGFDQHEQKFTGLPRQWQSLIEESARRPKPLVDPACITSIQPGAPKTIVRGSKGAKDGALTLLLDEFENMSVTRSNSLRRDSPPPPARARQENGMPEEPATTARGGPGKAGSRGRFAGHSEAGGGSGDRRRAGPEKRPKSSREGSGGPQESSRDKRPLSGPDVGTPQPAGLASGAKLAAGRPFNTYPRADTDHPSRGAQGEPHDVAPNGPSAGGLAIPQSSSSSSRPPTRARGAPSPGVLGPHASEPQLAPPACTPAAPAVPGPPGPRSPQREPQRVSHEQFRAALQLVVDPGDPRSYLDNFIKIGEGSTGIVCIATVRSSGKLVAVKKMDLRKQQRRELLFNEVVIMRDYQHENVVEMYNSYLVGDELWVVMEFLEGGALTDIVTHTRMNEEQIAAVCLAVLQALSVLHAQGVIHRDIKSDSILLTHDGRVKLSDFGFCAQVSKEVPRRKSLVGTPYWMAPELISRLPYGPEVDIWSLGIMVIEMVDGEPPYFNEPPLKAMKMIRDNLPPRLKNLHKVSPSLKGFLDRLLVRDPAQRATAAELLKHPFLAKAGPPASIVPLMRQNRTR
MAP3K7 TAB1 (human), sequence (O43318 whole entry, looked up): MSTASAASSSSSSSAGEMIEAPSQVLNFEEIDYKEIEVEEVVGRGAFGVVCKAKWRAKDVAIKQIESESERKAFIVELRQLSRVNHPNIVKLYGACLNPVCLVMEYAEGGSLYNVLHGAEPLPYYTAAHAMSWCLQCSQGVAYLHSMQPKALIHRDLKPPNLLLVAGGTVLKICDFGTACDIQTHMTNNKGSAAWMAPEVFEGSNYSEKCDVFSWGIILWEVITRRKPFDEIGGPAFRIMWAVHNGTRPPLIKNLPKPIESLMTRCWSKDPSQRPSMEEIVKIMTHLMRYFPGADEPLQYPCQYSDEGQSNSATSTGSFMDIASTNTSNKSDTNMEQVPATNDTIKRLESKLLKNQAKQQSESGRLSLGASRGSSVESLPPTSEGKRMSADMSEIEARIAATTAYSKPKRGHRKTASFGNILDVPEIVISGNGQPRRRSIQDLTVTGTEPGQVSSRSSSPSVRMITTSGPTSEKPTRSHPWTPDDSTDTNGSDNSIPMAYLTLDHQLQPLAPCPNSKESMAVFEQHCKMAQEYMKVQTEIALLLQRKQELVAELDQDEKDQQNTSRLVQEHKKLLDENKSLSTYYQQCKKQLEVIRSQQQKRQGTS
MAP3K7 TAB1 (human), sequence (Q15750 whole entry, looked up): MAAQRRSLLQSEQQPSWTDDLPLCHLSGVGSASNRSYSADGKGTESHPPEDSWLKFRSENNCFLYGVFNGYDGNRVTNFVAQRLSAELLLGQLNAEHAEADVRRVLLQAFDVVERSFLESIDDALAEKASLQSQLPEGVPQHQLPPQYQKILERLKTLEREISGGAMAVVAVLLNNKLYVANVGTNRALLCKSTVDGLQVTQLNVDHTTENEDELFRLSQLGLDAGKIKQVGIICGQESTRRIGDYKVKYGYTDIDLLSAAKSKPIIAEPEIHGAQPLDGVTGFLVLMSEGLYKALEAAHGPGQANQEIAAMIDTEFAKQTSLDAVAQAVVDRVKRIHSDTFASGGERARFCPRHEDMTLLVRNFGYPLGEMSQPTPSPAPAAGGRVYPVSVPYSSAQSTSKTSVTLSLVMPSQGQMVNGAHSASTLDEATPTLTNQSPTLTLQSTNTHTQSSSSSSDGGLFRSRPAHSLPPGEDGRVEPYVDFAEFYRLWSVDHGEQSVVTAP
MAP2K1 (human), sequence (Q02750 whole entry, looked up): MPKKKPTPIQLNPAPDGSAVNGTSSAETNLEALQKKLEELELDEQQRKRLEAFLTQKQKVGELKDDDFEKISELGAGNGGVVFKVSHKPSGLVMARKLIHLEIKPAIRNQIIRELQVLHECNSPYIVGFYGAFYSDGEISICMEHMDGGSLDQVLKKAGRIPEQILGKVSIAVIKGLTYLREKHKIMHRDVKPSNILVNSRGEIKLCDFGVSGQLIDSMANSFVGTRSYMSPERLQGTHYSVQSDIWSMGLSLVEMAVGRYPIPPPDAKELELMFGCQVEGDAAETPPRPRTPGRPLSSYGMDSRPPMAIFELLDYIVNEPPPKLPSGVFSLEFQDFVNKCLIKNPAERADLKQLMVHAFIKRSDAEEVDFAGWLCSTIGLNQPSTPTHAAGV
MST4 (human), sequence (Q9P289 whole entry, looked up): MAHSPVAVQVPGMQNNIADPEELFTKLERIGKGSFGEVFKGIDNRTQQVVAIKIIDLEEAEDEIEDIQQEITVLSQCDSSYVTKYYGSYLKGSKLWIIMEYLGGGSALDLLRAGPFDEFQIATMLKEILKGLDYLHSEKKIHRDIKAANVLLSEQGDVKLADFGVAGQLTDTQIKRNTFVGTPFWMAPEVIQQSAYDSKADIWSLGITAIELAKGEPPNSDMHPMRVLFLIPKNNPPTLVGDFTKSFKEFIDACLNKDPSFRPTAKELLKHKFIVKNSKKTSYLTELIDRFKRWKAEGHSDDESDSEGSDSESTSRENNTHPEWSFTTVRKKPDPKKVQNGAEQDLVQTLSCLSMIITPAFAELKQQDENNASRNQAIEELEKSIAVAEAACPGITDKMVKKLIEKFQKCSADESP
AKT1 (human), P31749 [S473D], sequence (P31749 whole entry S473D, looked up): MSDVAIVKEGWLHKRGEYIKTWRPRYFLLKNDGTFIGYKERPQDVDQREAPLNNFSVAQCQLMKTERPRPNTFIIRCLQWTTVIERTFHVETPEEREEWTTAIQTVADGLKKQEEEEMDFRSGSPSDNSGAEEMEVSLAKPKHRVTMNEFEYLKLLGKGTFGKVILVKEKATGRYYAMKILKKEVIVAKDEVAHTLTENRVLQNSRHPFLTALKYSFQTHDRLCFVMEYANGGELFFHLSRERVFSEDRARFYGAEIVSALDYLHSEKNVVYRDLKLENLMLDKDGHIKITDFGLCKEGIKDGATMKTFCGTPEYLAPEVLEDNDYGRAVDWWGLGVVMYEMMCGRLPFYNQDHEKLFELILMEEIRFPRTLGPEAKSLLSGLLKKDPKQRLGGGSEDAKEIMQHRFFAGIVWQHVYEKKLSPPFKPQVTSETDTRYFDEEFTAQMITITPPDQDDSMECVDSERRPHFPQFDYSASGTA

residual activity (IKBKB (human); compound 0.01 µM): 103% | residual activity (IKBKB (human); compound 0.1 µM): 100% | residual activity (IKBKB (human); compound 1.0 µM): 112% | residual activity (EPHA4 (human); compound 0.01 µM): 109% | residual activity (EPHA4 (human); compound 0.1 µM): 122% | residual activity (EPHA4 (human); compound 1.0 µM): 107% | residual activity (PKN2 (human); compound 0.01 µM): 93% | residual activity (MINK1 (human); compound 0.01 µM): 106% | residual activity (MINK1 (human); compound 0.1 µM): 111% | residual activity (MINK1 (human); compound 1.0 µM): 102% | residual activity (TAOK1 (human); compound 0.01 µM): 106% | residual activity (TAOK1 (human); compound 0.1 µM): 101% | residual activity (TAOK1 (human); compound 1.0 µM): 100% | residual activity (CSK (human); compound 0.1 µM): 105% | residual activity (PAK6 (human); compound 0.01 µM): 92% | residual activity (PAK6 (human); compound 0.1 µM): 95% | residual activity (PAK6 (human); compound 1.0 µM): 95% | residual activity (EPHA2 (human); compound 0.01 µM): 97% | residual activity (EPHA2 (human); compound 0.1 µM): 98% | residual activity (EPHA2 (human); compound 1.0 µM): 56% | residual activity (NUAK1 (human); compound 0.01 µM): 93% | residual activity (NUAK1 (human); compound 0.1 µM): 99% | residual activity (NUAK1 (human); compound 1.0 µM): 105% | residual activity (MAP3K11 (human); compound 0.1 µM): 102% | residual activity (MAP3K11 (human); compound 1.0 µM): 90% | residual activity ([1]; compound 0.01 µM): 109% | residual activity ([1]; compound 0.1 µM): 124% | residual activity ([1]; compound 1.0 µM): 107% | residual activity (LCK (mouse); compound 0.01 µM): 79% | residual activity (LCK (mouse); compound 0.1 µM): 93% | residual activity (LCK (mouse); compound 1.0 µM): 69% | residual activity (TTK (human); compound 0.01 µM): 101% | residual activity (TTK (human); compound 0.1 µM): 95% | residual activity (TTK (human); compound 1.0 µM): 101% | residual activity (EPHB1 (human); compound 0.01 µM): 97% | residual activity (EPHB1 (human); compound 0.1 µM): 110% | residual activity (EPHB1 (human); compound 1.0 µM): 84% | residual activity (TBK1 (human); compound 0.01 µM): 110% | residual activity (TBK1 (human); compound 0.1 µM): 112% | residual activity (TBK1 (human); compound 1.0 µM): 93% | residual activity (MARK2 (human); compound 0.01 µM): 90% | residual activity (MARK2 (human); compound 0.1 µM): 100% | residual activity (MARK2 (human); compound 1.0 µM): 100% | residual activity (MAPK10 (human); compound 0.01 µM): 89% | residual activity (MAPK10 (human); compound 0.1 µM): 101% | residual activity (MAPK10 (human); compound 1.0 µM): 107% | residual activity (PAK4 (human); compound 0.01 µM): 81% | residual activity (PAK4 (human); compound 0.1 µM): 100% | residual activity (AURKB (human); compound 0.01 µM): 90% | residual activity (AURKB (human); compound 0.1 µM): 92% | residual activity (AURKB (human); compound 1.0 µM): 107% | residual activity (ROCK2 (rat); compound 0.01 µM): 91% | residual activity (ROCK2 (rat); compound 0.1 µM): 94% | residual activity (ROCK2 (rat); compound 1.0 µM): 99% | residual activity (SRC (human); compound 0.01 µM): 96% | residual activity (SRC (human); compound 0.1 µM): 91% | residual activity (SRC (human); compound 1.0 µM): 86% | residual activity (CDK2 CCNA2 (human); compound 0.01 µM): 91% | residual activity (CDK2 CCNA2 (human); compound 0.1 µM): 81% | residual activity (CDK2 CCNA2 (human); compound 1.0 µM): 76% | residual activity (MYLK (human); compound 0.01 µM): 108% | residual activity (MYLK (human); compound 0.1 µM): 102% | residual activity (MYLK (human); compound 1.0 µM): 96% | residual activity (CHEK2 (human); compound 0.01 µM): 91% | residual activity (CHEK2 (human); compound 0.1 µM): 91% | residual activity (EPHB3 (human); compound 0.01 µM): 118% | residual activity (EPHB3 (human); compound 0.1 µM): 130% | residual activity (EPHB3 (human); compound 1.0 µM): 92% | residual activity (MAP3K7 TAB1 (human); compound 0.01 µM): 101% | residual activity (MAP3K7 TAB1 (human); compound 0.1 µM): 48% | residual activity (MAP3K7 TAB1 (human); compound 1.0 µM): 2% | residual activity (DYRK3 (human); compound 0.01 µM): 113% | residual activity (DYRK3 (human); compound 0.1 µM): 109% | residual activity (DYRK3 (human); compound 1.0 µM): 124% | residual activity (CHEK1 (human); compound 0.01 µM): 93% | residual activity (CHEK1 (human); compound 0.1 µM): 93% | residual activity (CHEK1 (human); compound 1.0 µM): 94% | residual activity (GCK (human); compound 0.01 µM): 114% | residual activity (GCK (human); compound 0.1 µM): 105% | residual activity (GCK (human); compound 1.0 µM): 97% | residual activity (MST4 (human); compound 0.01 µM): 96% | residual activity (MST4 (human); compound 0.1 µM): 106% | residual activity (MST4 (human); compound 1.0 µM): 86% | residual activity ([2]; compound 0.01 µM): 99% | residual activity ([2]; compound 0.1 µM): 94% | residual activity ([2]; compound 1.0 µM): 95% | residual activity (MAP2K1 (human); compound 0.01 µM): 101% | residual activity (MAP2K1 (human); compound 0.1 µM): 21% | residual activity (MAP2K1 (human); compound 1.0 µM): 1% | residual activity (RPS6KA3 KD1 KD2 (human); compound 0.01 µM): 129% | residual activity (RPS6KA3 KD1 KD2 (human); compound 0.1 µM): 125% | residual activity (RPS6KA3 KD1 KD2 (human); compound 1.0 µM): 129% | residual activity (EPHB2 (human); compound 0.01 µM): 124% | residual activity (EPHB2 (human); compound 0.1 µM): 118% | residual activity (EPHB2 (human); compound 1.0 µM): 115% | residual activity (MAPK8 (human); compound 0.01 µM): 104% | residual activity (MAPK8 (human); compound 0.1 µM): 98% | residual activity (MAPK8 (human); compound 1.0 µM): 80% | residual activity (CaMK1 (human); compound 0.01 µM): 96% | residual activity (CaMK1 (human); compound 0.1 µM): 96% | residual activity (CaMK1 (human); compound 1.0 µM): 112%
SMILES: COc1cc(O)c2c(c1)[C@H]1OC1C[C@H](O)[C@H](O)C(=O)/C=C\C[C@H](C)OC2=O (stereo not given in full)

residual activity (IKBKB (human); compound 0.1 µM): 86% | residual activity (IKBKB (human); compound 1.0 µM): 55% | residual activity (EPHA4 (human); compound 0.1 µM): 14% | residual activity (EPHA4 (human); compound 1.0 µM): 5% | residual activity (PKN2 (human); compound 0.1 µM): 57% | residual activity (PKN2 (human); compound 1.0 µM): 27% | residual activity (MINK1 (human); compound 0.1 µM): 104% | residual activity (MINK1 (human); compound 1.0 µM): 57% | residual activity (TAOK1 (human); compound 0.1 µM): 95% | residual activity (TAOK1 (human); compound 1.0 µM): 74% | residual activity (CSK (human); compound 0.1 µM): 65% | residual activity (CSK (human); compound 1.0 µM): 38% | residual activity (PAK6 (human); compound 0.1 µM): 62% | residual activity (PAK6 (human); compound 1.0 µM): 24% | residual activity (EPHA2 (human); compound 0.1 µM): 28% | residual activity (NUAK1 (human); compound 0.1 µM): 16% | residual activity (NUAK1 (human); compound 1.0 µM): 13% | residual activity (MAP3K11 (human); compound 0.1 µM): 15% | residual activity (MAP3K11 (human); compound 1.0 µM): 8% | residual activity ([1]; compound 0.1 µM): 99% | residual activity ([1]; compound 1.0 µM): 89% | residual activity (LCK (mouse); compound 0.1 µM): 10% | residual activity (LCK (mouse); compound 1.0 µM): 4% | residual activity (TTK (human); compound 0.1 µM): 81% | residual activity (TTK (human); compound 1.0 µM): 64% | residual activity (EPHB1 (human); compound 0.1 µM): 8% | residual activity (EPHB1 (human); compound 1.0 µM): 3% | residual activity (TBK1 (human); compound 0.1 µM): 14% | residual activity (TBK1 (human); compound 1.0 µM): 8% | residual activity (MARK2 (human); compound 0.1 µM): 67% | residual activity (MARK2 (human); compound 1.0 µM): 28% | residual activity (MAPK10 (human); compound 0.1 µM): 65% | residual activity (MAPK10 (human); compound 1.0 µM): 39% | residual activity (PAK4 (human); compound 0.1 µM): 29% | residual activity (PAK4 (human); compound 1.0 µM): 9% | residual activity (AURKB (human); compound 0.1 µM): 36% | residual activity (AURKB (human); compound 1.0 µM): 11% | residual activity (ROCK2 (rat); compound 0.1 µM): 49% | residual activity (ROCK2 (rat); compound 1.0 µM): 25% | residual activity (SRC (human); compound 0.1 µM): 7% | residual activity (SRC (human); compound 1.0 µM): 3% | residual activity (CDK2 CCNA2 (human); compound 0.1 µM): 34% | residual activity (CDK2 CCNA2 (human); compound 1.0 µM): 7% | residual activity (MYLK (human); compound 0.1 µM): 100% | residual activity (MYLK (human); compound 1.0 µM): 72% | residual activity (CHEK2 (human); compound 0.1 µM): 48% | residual activity (CHEK2 (human); compound 1.0 µM): 12% | residual activity (EPHB3 (human); compound 0.1 µM): 86% | residual activity (EPHB3 (human); compound 1.0 µM): 16% | residual activity (MAP3K7 TAB1 (human); compound 0.1 µM): 14% | residual activity (MAP3K7 TAB1 (human); compound 1.0 µM): 19% | residual activity (DYRK3 (human); compound 1.0 µM): 10% | residual activity (CHEK1 (human); compound 0.1 µM): 72% | residual activity (CHEK1 (human); compound 1.0 µM): 20% | residual activity (GCK (human); compound 0.1 µM): 29% | residual activity (MST4 (human); compound 0.1 µM): 90% | residual activity (MST4 (human); compound 1.0 µM): 67% | residual activity ([2]; compound 0.1 µM): 50% | residual activity ([2]; compound 1.0 µM): 14% | residual activity (MAP2K1 (human); compound 0.1 µM): 40% | residual activity (MAP2K1 (human); compound 1.0 µM): 13% | residual activity (RPS6KA3 KD1 KD2 (human); compound 0.1 µM): 38% | residual activity (RPS6KA3 KD1 KD2 (human); compound 1.0 µM): 9% | residual activity (EPHB2 (human); compound 0.1 µM): 23% | residual activity (EPHB2 (human); compound 1.0 µM): 6% | residual activity (MAPK8 (human); compound 0.1 µM): 89% | residual activity (MAPK8 (human); compound 1.0 µM): 38% | residual activity (CaMK1 (human); compound 0.1 µM): 67% | residual activity (CaMK1 (human); compound 1.0 µM): 26%
SMILES: COc1ccc(-n2ncc3cnc(Nc4cc(OC)c(OC)c(OCCCN5CCN(C)CC5)c4)nc32)cc1
